Patent publication US20250163057A1, “DCN-1 MODULATING COMPOUNDS AND METHODS OF USE THEREOF” (Cellarity, Inc., priority 2023, published 2025)
Read-outs that look alike come from different tables or passages of the source.

Columns and labels:
[1] = system: Cullin-3 (CUL3) neddylation; experiment: AlphaLISA assay for Cullin-3 (CUL3) neddylation in TF 1 cells; assay type: cell-based; conditions: 3 hours treatment
Description: An AiphaLISA assay was performed to evaluate the ability of the compounds to suppress neddylation, which is downstream from DCN-1 and DCN-2. A stronger inhibition of DCN-1 and DCN-2 is expected to result in a suppression of neddylation as shown by a lower AlphaLISA signal. The AlphaLISA assay for detecting Cullin-3 (CUL3) neddylation was performed according to manufacturer instructions (Revvity, Hopkinton, MA). Briefly, TF 1 cells (ATCC) were plated in Iscove's Modified Dulbecco's Medium (IMIDM) without supplements in 384-well plates. These cells were treated with […] for 3 hours before lysing them with AlphaLISA lysis buffer, 5× (Revvity). To detect the level of CUL3 neddylation, biotinylated anti-NEDD8 antibody, was added followed by AlphaLISA Acceptor beads conjugated with anti-CUL3 antibody. After overnight incubation, Streptavidin-coated Alpha Donor beads were added and incubated for 1 hour. The AlphaLISA signal was then read on a VICTOR Nivo Multimode Microplate Reader (Revvity, Hopkinton, MA). The positive control was 1 μM DI-1548, which is reported to reduce CUL3 neddylation, also referred to as C-1 in Example 41 (Zhou et al. Nature Comm. 2021). The neddylation signal was normalized such that the percent inhibition is 0% for vehicle control and 100% for positive control. The dose-response curves were fitted with the Hill equation to obtain IC50 values (Graphpad Prism).

[2] = target: DCN1 (DCUND1) protein PONY domain (Homo sapiens (Human), UniProt Q96GG9); experiment: TR-FRET assay, DCN1 binding with FAM-labeled probe
In short: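 Tb-DCN1 PONY domain (E. coli, biotin/streptavidin-Tb); FAM-labelled non-covalent inhibitor probe; TritonX buffer, 200 mM NaCl; 5 nM DCN1 + 20 nM probe or 0.31 nM DCN1 + 900 nM total probe; 0.1% DMSO; TR-FRET read 1, 5, 24 hrs.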

[3] = 24 hr after treatment with compound, read-out: TR FRET IC50 24 hr
[4] = TR FRET IC50 1 hr (nM), 1 hr after treatment with compound
[5] = read-out: TR FRET IC50 1 hr, 1 hr after treatment with compound

Sequence of DCN1 (DCUND1) protein PONY domain (Q96GG9 60-248): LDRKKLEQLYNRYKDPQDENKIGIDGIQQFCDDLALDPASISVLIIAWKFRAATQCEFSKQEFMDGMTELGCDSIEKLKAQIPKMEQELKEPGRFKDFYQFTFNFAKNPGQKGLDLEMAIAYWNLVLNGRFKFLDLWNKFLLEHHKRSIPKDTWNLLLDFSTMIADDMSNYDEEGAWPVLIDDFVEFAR

Structure (SMILES) | IC50 ([1]; Homo sapiens, TF-1, 3 h) [nM] | IC50 [2, 3] [nM] | IC50 [2, 4] [nM] | IC50 [1] [nM] | IC50 [2, 5] [nM]
CCN1C(=O)[C@@H](NC(=O)c2cccc(C(F)(F)F)c2)[C@@H](C2CC2)c2c(C(=O)N3CC[C@H](NC)[C@H]3C#N)nn(C3CCOCC3)c21 (relative stereo) [Compound I-687, N-((4S,5S)-3-((2S*,3S*)-2-cyano-3-(methylamino)pyrrolidine-1-carbonyl)-4-cyclopropyl-7-ethyl-6-oxo-1-(tetrahydro-2H-pyran-4-yl)-4,5,6,7-tetrahydro-1H-pyrazolo[3,4-b]pyridin-5-yl)-3-(trifluoromethyl)benzamide] | ≤ 100 | ≤ 200 | ≤ 200 |  | 
CCN1C(=O)[C@@H](NC(=O)c2cccc(C(F)(F)F)c2)[C@@H](c2ccc(F)cc2)c2c(CN(C#N)CCCCN(C)C)nn(-c3ccccc3)c21 (single isomer, unassigned) [Compound I-249, ˜{N}-[(4˜{S},5˜{R})-3-[[cyano-[4-(dimethylamino)butyl]amino]methyl]-7-ethyl-4-(4-fluorophenyl)-6-oxo-1-phenyl-4,5-dihydropyrazolo[3,4-b]pyridine-5-yl]-3-(trifluoromethyl)benzamide] | 100 to 1000 | 200 to 1000 | 200 to 1000 |  | 
CCN1C(=O)[C@@H](NC(=O)c2cccc(C(F)(F)F)c2)[C@@H](C2CC2)c2c(C(=O)N3CCN(C)C[C@@H]3C#N)nn(C3CCOCC3)c21 (single isomer, unassigned) [Compound I-431] | 100 to 1000 | 200 to 1000 | 200 to 1000 |  | 
CCN1C(=O)[C@@H](NC(=O)c2nccc(C(F)(F)F)n2)[C@H](c2ccc(F)cc2)c2c(CC(=O)N[C@@H](C)C#N)nn(-c3ccccc3)c21 (single isomer, unassigned) [Compound I-451] | > 1000 | 1000 to 3000 | 1000 to 3000 |  | 
CCN1C(=O)[C@@H](NC(=O)N2CCC[C@@H](C(F)(F)F)C2)C(c2ccc(F)cc2)c2c(C(=O)N3CCC[C@H]3C#N)nn(-c3ccccc3)c21 (single isomer, unassigned) [Compound I-464] | > 1000 | 1000 to 3000 | 1000 to 3000 |  | 
CCN1C(=O)[C@@H](NC(=O)c2cccc(C(F)(F)F)c2)[C@@H](c2ccc(F)cc2)c2c(C(=O)N3[C@H](C#N)C[C@H]4C[C@H]43)nn([C@@H]3CCOC3)c21 (single isomer, unassigned) [Compound I-482] |  | ≤ 200 |  | ≤ 100 | ≤ 200
CCN1C(=O)[C@@H](NC(=O)N2CCC[C@H](C(F)(F)F)C2)[C@@H](c2ccc(F)cc2)c2c(C(=O)N3CCC[C@H]3C#N)nn(-c3ccccc3)c21 (single isomer, unassigned) [Compound I-501] | > 1000 | 200 to 1000 | 1000 to 3000 |  | 
CCN1C(=O)[C@@H](NC(=O)c2cccc(C(F)(F)F)c2)[C@@H](C2CC2)c2c(C(=O)N3CCNC[C@@H]3C#N)nn(-c3ccccc3)c21 (single isomer, unassigned) [Compound I-518] | ≤ 100 | ≤ 200 | 200 to 1000 |  | 
CCN1C(=O)[C@H](NC(=O)c2cccc(C(F)(F)F)c2)[C@H](c2ccc(F)cc2)c2c(C(=O)N3[C@H](C#N)C[C@H]4C[C@H]43)nn([C@@H]3CCOC3)c21 (single isomer, unassigned) [Compound I-562] |  | 1000 to 3000 | 1000 to 3000 | > 1000 | 
CCN1C(=O)[C@@H](NC(=O)c2cccc(C(F)(F)F)c2)[C@@H](c2ccc(F)cc2)c2c(C(=O)N3[C@H](C#N)C[C@H]4C[C@H]43)nn([C@@H]3CCOC3)c21 (single isomer, unassigned) [Compound I-583] |  | 1000 to 3000 | 1000 to 3000 | > 1000 | 
CCN1C(=O)[C@@H](NC(=O)c2nccc(C(F)(F)F)n2)[C@H](c2ccc(F)cc2)c2c(CC(=O)N[C@H](C)C#N)nn(-c3ccccc3)c21 (single isomer, unassigned) [Compound I-607] | > 1000 | 1000 to 3000 | 200 to 1000 |  | 
CCN1C(=O)[C@H](NC(=O)c2cccc(C(F)(F)F)c2)[C@H](c2ccc(F)cc2)c2c(C(=O)N3[C@H](C#N)C[C@H]4C[C@H]43)nn([C@@H]3CCOC3)c21 (single isomer, unassigned) [Compound I-704] |  | ≤ 200 |  | 100 to 1000 | 1000 to 3000
CCN1C(=O)[C@H](NC(=O)c2cccc(C(F)(F)F)c2)[C@H](c2ccc(F)cc2)c2c(C(=O)N(CC#N)CC(=O)OC)nn(-c3ccccc3)c21 (stereo in doubt) [Compound I-406] | 100 to 1000 | ≤ 200 | 200 to 1000 |  | 
CCN1C(=O)C(NC(=O)c2cccc(C(F)(F)F)c2)[C@@H](C2CC2)c2c(C(=O)N3CC(NC)CC3C#N)nn(C3CCOCC3)c21 (stereo in doubt) [Compound I-420, N-[(4S,5S)-3-[(2S,4R*)-2-cyano-4-(methylamino)pyrrolidine-1-carbonyl]-4-cyclopropyl-7-ethyl-1-(oxan-4-yl)-6-oxo-4H,5H-pyrazolo[3,4-b]pyridin-5-yl]-3-(trifluoromethyl)benzamide] | > 1000 | 1000 to 3000 | 1000 to 3000 |  | 
CCN1C(=O)[C@H](NC(=O)c2cccc(C(F)(F)F)c2)[C@H](c2ccc(F)cc2)c2c(C(=O)N(CC#N)CCC(=O)OC)nn(-c3ccccc3)c21 (stereo in doubt) [Compound I-461] | > 1000 | 1000 to 3000 | 1000 to 3000 |  | 
C=C(CN1CCC1)C(=O)NCc1nn(-c2ccccc2)c2c1[C@H](C1CC1)[C@H](NC(=O)c1cccc(C(F)(F)F)c1)C(=O)N2CC (stereo in doubt) [Compound I-462] | ≤ 100 | ≤ 200 |  |  | ≤ 200
CCN(CC#N)C(=O)c1nn(-c2ccccc2)c2c1[C@@H](c1ccc(F)cc1)[C@@H](NC(=O)c1cccc(C(F)(F)F)c1)C(=O)N2CC (stereo in doubt) [Compound I-531] | 100 to 1000 | ≤ 200 | 1000 to 3000 |  | 
CCN1C(=O)[C@@H](NC(=O)c2cccc(C(F)(F)F)c2)[C@@H](c2ccc(F)cc2)c2c(C(=O)N3CCC[C@H]3C#N)nn(-c3cccc(OCCCN4CC5(COC5)C4)c3)c21 (stereo in doubt) [Compound I-615] | > 1000 | 200 to 1000 | 1000 to 3000 |  | 
C=C(CN1CCC1)C(=O)NCc1nn(-c2ccccc2)c2c1[C@@H](C1CC1)[C@@H](NC(=O)c1cccc(C(F)(F)F)c1)C(=O)N2CC (stereo in doubt) [Compound I-636] | > 1000 | 1000 to 3000 | 1000 to 3000 |  | 
CCN1C(=O)[C@H](NC(=O)c2cccc(C(F)(F)F)c2)[C@H](c2ccc(F)cc2)c2c(C(=O)N(CC#N)CCO)nn(-c3ccccc3)c21 (stereo in doubt) [Compound I-639] | > 1000 | 1000 to 3000 | 1000 to 3000 |  | 
CCN1C(=O)[C@H](NC(=O)c2cccc(C(F)(F)F)c2)[C@H](c2ccc(F)cc2)c2c(C(=O)N(CC#N)C3CC3)nn(-c3ccccc3)c21 (stereo in doubt) [Compound I-674] | > 1000 | 1000 to 3000 | 1000 to 3000 |  | 
C=C(CN1CCC(C)(O)C1)C(=O)NCc1nn(-c2ccccc2)c2c1[C@H](c1ccc(F)cc1)[C@H](NC(=O)c1cccc(C(F)(F)F)c1)C(=O)N2CC (stereo partly drawn) [Compound I-25] | ≤ 100 | ≤ 200 |  |  | ≤ 200
C=C(CN1CC2CCC(C1)O2)C(=O)NCc1nn(-c2ccccc2)c2c1[C@H](c1ccc(F)cc1)[C@H](NC(=O)c1cccc(C(F)(F)F)c1)C(=O)N2CC [Compound I-50] | ≤ 100 | ≤ 200 |  |  | ≤ 200
C=C(CN1CC2CC(C1)O2)C(=O)NCc1nn(-c2ccccc2)c2c1[C@H](c1ccc(F)cc1)[C@H](NC(=O)c1cccc(C(F)(F)F)c1)C(=O)N2CC [Compound I-56] | ≤ 100 | ≤ 200 |  |  | ≤ 200
CCN1C(=O)[C@H](NC(=O)c2cccc(C(F)(F)F)c2)[C@H](c2ccc(F)cc2)c2c(C(=O)N[C@@H](C)C#N)nn(-c3ccccc3)c21 [Compound I-255, (4R,5R)—N—((S)-1-cyanoethyl)-7-ethyl-4-(4-fluorophenyl)-6-oxo-1-phenyl-5-(3-(trifluoromethyl)benzamido)-4,5,6,7-tetrahydro-1H-pyrazolo[3,4-b]pyridine-3-carboxamide] | > 1000 | 1000 to 3000 | 1000 to 3000 |  | 
CCN1C(=O)[C@@H](NC(=O)c2cccc(C(F)(F)F)c2)[C@@H](c2ccc(F)cc2)c2c(CNC/C=C/C(=O)N3CCCC3)nn(-c3ccccc3)c21 [Compound I-400] | 100 to 1000 | ≤ 200 |  |  | ≤ 200
CCN1C(=O)[C@H](NC(=O)c2cccc(C(F)(F)F)c2)[C@H](c2ccc(F)cc2)c2c(C(=O)N3CCC[C@H]3C#N)nn(C3CCOCC3)c21 [Compound I-401] | > 1000 | 1000 to 3000 | 1000 to 3000 |  | 
